Experimental data from the NIST ThermoML archive (doi:10.1016/j.jct.2019.01.016).
“And” between values parts separate entries of the source, which are not always exact repeats. Identical values can stand only once. ± gives the expanded uncertainty stated by the source.

Columns and labels:
[1] = Molar enthalpy of transition or fusion; settings: DSC
[2] = for mass density: 101.33 kPa, X-ray diffraction; for Normal melting temperature: DTA
[3] = molar heat capacity at constant pressure; settings: 101.33 kPa, Crystal 2, DSC
[4] = molar enthalpy of vaporization or sublimation; settings: Static calorimetry

[C-]#[O+].[C-]#[O+].[C-]#[O+].[C-]#[O+].[C-]#[O+].[C-]#[O+].[C-]#[O+].[C-]#[O+].[C-]#[O+].[C-]#[O+].[Re].[Re] [decacarbonyldirhenium]
Settings | Molar enthalpy of transition or fusion [kcal/mol] | Normal melting temperature [°C] | Triple point temperature [K] | molar heat capacity at constant pressure [J/K/mol]
[1], Crystal 1 | 1 ± 0.263 | – | – | –
[1], Crystal 2 | 3.66 ± 0.0908 | – | – | –
[2], Crystal 1 | – | 182.01 ± 1.7 | – | –
[2], Crystal 2, DSC | – | – | 366.75 ± 0.92 | –
[3], 298.15 K | – | – | – | 391.8 ± 53
[3], 303.15 K | – | – | – | 396.5 ± 50
[3], 308.15 K | – | – | – | 401.1 ± 47
[3], 313.15 K | – | – | – | 405.5 ± 44
[3], 318.15 K | – | – | – | 409.8 ± 41
[3], 323.15 K | – | – | – | 413.9 ± 39
[3], 328.15 K | – | – | – | 417.9 ± 36
[3], 333.15 K | – | – | – | 421.8 ± 34
[3], 338.15 K | – | – | – | 425.5 ± 32

Settings | mass density [kg/m3] | molar enthalpy [kcal/mol]
[2], 293 K, Crystal | 2932 ± 41 | –
[4], 332.8 K, Crystal 2 | – | 23 ± 0.234

[CH3][Re](=[O])(=[O])=[O] [methyltrioxorhenium]
Crystal
Settings | Molar enthalpy of transition or fusion [kcal/mol] | Normal melting temperature [°C]
[1] | 4.72 ± 0.129 | –
[2] | – | 112.59 ± 0.39

Crystal
Settings | mass density, 167 K [kg/m3] | mass density, 214 K [kg/m3] | mass density, 296 K | molar enthalpy, 298 K [kcal/mol]
[2] | 4254 ± 7 | 4199 ± 6 | 4124 ± 80 kg/m3 and 4132 ± 19 kg/m3 | –
[4] | – | – | – | 16.79 ± 0.124
